Measurements taken from patent US20210330611A1, “THERAPY FOR NEUROLOGICAL DISEASES/DISORDERS” (priority 2020, published 2021).
Where a name gives a salt, the structure may show the parent alone. Read-outs that look alike come from different tables or passages of the source.

What was measured:
[1] = tested on: fibrin-induced microglia activation; experiment: Image-based assay of fibrin-induced microglia activation (HTS and dose response); format: cell-based, rat; conditions: primary microglia HTS, fibrin stimulation, compounds at 10 μM; for inhibition at 10 µM: Rattus norvegicus, Microglia, read-out: Fibrin % inhibition
[2] = tested on: LPS-induced microglia activation; experiment: Image-based assay of LPS-induced microglia activation (HTS and dose response); format: cell-based, rat; conditions: primary microglia HTS, LPS stimulation, compounds at 10 μM; for inhibition at 10 µM: Rattus norvegicus, Microglia, read-out: LPS % inhibition
[3] = tested on: fibrin- and LPS-induced microglia activation; experiment: cells; format: cell-based, rat; conditions: classification by fibrin and LPS inhibition, HTS at 10 μM
primary rat microglia [4] = tested on: primary rat microglia
primary rat microglia [5] = experiment: Cell toxicity (dead cells, size <150 μm2) in coated fibrin (cFib) assay; conditions: primary microglia HTS, fibrin assay, dead cells (size <150 μm2), compounds at 10 μM;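 also: share of dead cells sized under 150 µm2 at 10 µM in fibrin-stimulated microglia HTS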

| Structure (SMILES) | inhibition at 10 µM [1] | inhibition at 10 µM [2] | Quadrant (FIG. 5b) [3] | LPS % cell toxicity (primary rat microglia [4]; rat) | Fibrin % cell toxicity (primary rat microglia [5]) | Fibrin % inhibition [1] | LPS % inhibition [2] | LPS % cell toxicity (primary rat microglia [4]) | Fibrin % inhibition ([1]; 10 µM) | LPS % inhibition ([2]; 10 µM) |
| --- | --- | --- | --- | --- | --- | --- | --- | --- | --- | --- |
| CCN(CC)CCOC(=O)C(c1ccccc1)C1CCCCC1 (centres unmarked) [Drofenine Hydrochloride] | -44% | 9% | Q4 | 0% | 1% | – | – | – | – | – |
| OCC(O)CN1CCN(c2ccccc2)CC1 (centres unmarked) [Dropropizine] | -26% | 11% | Q4 | 0% | 1% | – | – | – | – | – |
| C[C@]12CCC(=O)C=C1[C@@H]1C[C@@H]1[C@H]1[C@@H]3[C@@H]4C[C@@H]4[C@@]4(CCC(=O)O4)[C@@]3(C)CC[C@@H]12 [Drospirenone] | 11% | 6% | Q4 | 1% | 1% | – | – | – | – | – |
| CC(=O)[C@H]1CC[C@H]2[C@@H]3C=CC4=CC(=O)CC[C@@]4(C)[C@@H]3CC[C@]12C [Dydrogesterone] | -11% | 4% | Q4 | 0% | 0% | – | – | – | – | – |
| Cn1c(=O)c2c(ncn2CC(O)CO)n(C)c1=O (centres unmarked) [Dyphylline] | -7% | -6% | Q4 | 0% | 0% | – | – | – | – | – |
| O=c1c2ccccc2[se]n1-c1ccccc1 [Ebselen] | -49% | -1% | Q4 | 0% | 0% | – | – | – | – | – |
| CC1(C)C2CCC1(CS(=O)(=O)O)C(=O)C2=Cc1ccc(C=C2C(=O)C3(CS(=O)(=O)O)CCC2C3(C)C)cc1 [Ecamsule] | – | – | Q4 | – | 1% | 20% | 29% | 0% | – | – |
| C[C@@H](O)CN(CCN(C[C@@H](C)O)C[C@@H](C)O)C[C@@H](C)O [Editol] | – | – | Q4 | – | 1% | 24% | 3% | 0% | – | – |
| CCc1cn([C@H]2C[C@H](O)[C@@H](CO)O2)c(=O)[nH]c1=O [Edoxudine] | -10% | 1% | Q4 | 0% | 0% | – | – | – | – | – |
| CC[N+](C)(C)c1cccc(O)c1 [Edrophonium] | -9% | -2% | Q4 | 0% | 1% | – | – | – | – | – |
| CCC1(C2=NCCN2)Cc2ccccc2O1 (centres unmarked) [Efaroxan, Efaroxan Hydrochloride] | – | – | Q4 | – | 1% | 1% | 5% | 0% | – | – |
| O=C1Nc2ccc(Cl)cc2[C@@](C#CC2CC2)(C(F)(F)F)O1 [Efavirenz] | -7% | -5% | Q4 | 0% | 1% | – | – | – | – | – |
| CCOC(=O)COc1ccc2c(=O)cc(-c3ccccc3)oc2c1 [Efloxate] | -8% | -1% | Q4 | 0% | 1% | – | – | – | – | – |
| CN1CCC[C@@H]1Cc1c[nH]c2ccc(CCS(=O)(=O)c3ccccc3)cc12 [Eletriptan Hydrobromide] | -14% | 12% | Q4 | 0% | 1% | – | – | – | – | – |
| CC(=O)[C@H]1CC[C@H]2[C@@H]3CC[C@@H]4C[C@H](O)CC[C@]4(C)[C@H]3CC[C@]12C [Eltanolone] | -6% | 4% | Q4 | 0% | 1% | – | – | – | – | – |
| C=CCOC(Cn1ccnc1)c1ccc(Cl)cc1Cl (centres unmarked) [Enilconazole] | 24% | 15% | Q4 | 1% | 1% | – | – | – | – | – |
| O=C(NCCCN1CCOCC1)c1ccc(Cl)cc1 [Eprobemide] | -24% | 21% | Q4 | 0% | 0% | – | – | – | – | – |

| Structure (SMILES) | inhibition at 10 µM [1] | inhibition at 10 µM [2] | Quadrant (FIG. 5b) [3] | LPS % cell toxicity (primary rat microglia [4]; rat) | Fibrin % cell toxicity (primary rat microglia [5]) | Fibrin % inhibition [1] | LPS % inhibition [2] | LPS % cell toxicity (primary rat microglia [4]) | Fibrin % inhibition ([1]; 10 µM) | LPS % inhibition ([2]; 10 µM) |
| --- | --- | --- | --- | --- | --- | --- | --- | --- | --- | --- |
| O=S(=O)([O-])CCCS(=O)(=O)[O-].[Na+].[Na+] [Eprodisate Disodium] | – | – | Q4 | – | 1% | −3% | 12% | 0% | – | – |
| CCCCc1ncc(/C=C(\Cc2cccs2)C(=O)O)n1Cc1ccc(C(=O)O)cc1 [Eprosartan] | -29% | -8% | Q4 | 0% | 1% | – | – | – | – | – |
| C[C@]12CC[C@H]3C(=CCc4cc(O)ccc43)[C@@H]1CCC2=O [Equilin] | 1% | 15% | Q4 | 0% | 0% | – | – | – | – | – |
| O=C(O)CSCC(=O)NC1CCSC1=O (centres unmarked) [Erdosteine] | 2% | 13% | Q4 | 0% | 1% | – | – | – | – | – |
| C[C@@H](CO)NC(=O)[C@@H]1C=C2c3cccc4[nH]cc(c34)C[C@H]2N(C)C1 [Ergonovine Maleate] | – | – | Q4 | 0% | 1% | – | – | – | 9% | 7% |
| C[C@@H](CO)NC(=O)[C@@H]1C=C2c3cccc4[nH]cc(c34)C[C@H]2N(C)C1 [Ergonovine] | – | – | Q4 | 0% | 1% | – | – | – | −23% | −10% |
| CN1C[C@H](C(=O)N[C@]2(C)O[C@@]3(O)[C@@H]4CCCN4C(=O)[C@H](Cc4ccccc4)N3C2=O)C=C2c3cccc4[nH]cc(c34)C[C@H]21 [Ergotamine Tartrate] | – | – | Q4 | 1% | 0% | – | – | – | 31% | 22% |
| CN1C[C@H](C(=O)N[C@]2(C)O[C@@]3(O)[C@@H]4CCCN4C(=O)[C@H](Cc4ccccc4)N3C2=O)C=C2c3cccc4[nH]cc(c34)C[C@H]21 [Ergotamine] | – | – | Q4 | 0% | 1% | – | – | – | 6% | −4% |
| OC[C@@H](O)[C@@H](O)CO [Erythritol] | -25% | 10% | Q4 | 0% | 1% | – | – | – | – | – |
| CCOC(=O)CCC(=O)O[C@H]1[C@H](O[C@@H]2[C@@H](C)[C@H](O[C@H]3C[C@@](C)(OC)[C@@H](O)[C@H](C)O3)[C@@H](C)C(=O)O[C@H](CC)[C@@](C)(O)[C@H](O)[C@@H](C)C(=O)[C@H](C)C[C@@]2(C)O)O[C@H](C)C[C@@H]1N(C)C [Erythromycin Ethylsuccinate] | -14% | 14% | Q4 | 0% | 0% | – | – | – | – | – |
| CCC(=O)O[C@H]1[C@H](O[C@@H]2[C@@H](C)[C@H](O[C@H]3C[C@@](C)(OC)[C@@H](O)[C@H](C)O3)[C@@H](C)C(=O)O[C@H](CC)[C@@](C)(O)[C@H](O)[C@@H](C)C(=O)[C@H](C)C[C@@]2(C)O)O[C@H](C)C[C@@H]1N(C)C [Erythromycin Propionate] | 23% | 27% | Q4 | 0% | 1% | – | – | – | – | – |
| O=C1OC2(c3ccccc31)c1cc(I)c(O)c(I)c1Oc1c2cc(I)c(O)c1I [Erythrosine Sodium] | 1% | 0% | Q4 | 0% | 1% | – | – | – | – | – |
| COC(=O)CCc1ccc(OCC(O)CNC(C)C)cc1 (centres unmarked) [Esmolol, Esmolol Hydrochloride] | – | – | Q4 | – | 1% | −15% | 2% | 0% | – | – |
| C[C@]12CC[C@@H]3c4ccc(OC(=O)c5ccccc5)cc4CC[C@H]3[C@@H]1CC[C@@H]2O [Estradiol Benzoate] | -3% | 8% | Q4 | 0% | 1% | – | – | – | – | – |
| C[C@]12CC[C@@H]3c4ccc(O)cc4CC[C@H]3[C@@H]1CC[C@@H]2OC(=O)CCC1CCCC1 [Estradiol Cypionate] | -25% | 8% | Q4 | 0% | 0% | – | – | – | – | – |
| CCC(=O)Oc1ccc2c(c1)CC[C@@H]1[C@@H]2CC[C@]2(C)[C@@H](OC(=O)CC)CC[C@@H]12 [Estradiol Dipropionate] | 0% | 17% | Q4 | 1% | 1% | – | – | – | – | – |
| CCCCC(=O)O[C@H]1CC[C@H]2[C@@H]3CCc4cc(O)ccc4[C@H]3CC[C@]12C [Estradiol Valerate] | -8% | 16% | Q4 | 1% | 1% | – | – | – | – | – |
